Data published in the supplement of paper PMC11061612.

Experiments:
RVH-421 (Melanoma) [1] = assay: Bliss excess, mean over the matrix (fraction); higher = more synergy
Method in brief: (§1)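 Cell lines grown in DMEM/F12 or RPMI with 10% FBS were plated in 1536-well plates and held 24 hours at 37°C, 5% CO2 before 72 hours of exposure to two-drug dose matrices, with DMSO typically at 0.2%. CellTiter-Glo 2.0 luminescence gave viability, which was converted to inhibition. Vehicle wells were set to 0 and blank wells to 1. Combination Emax is the second-highest inhibition in the matrix, and Bliss excess is the observed combination effect minus the expected EA + EB − EA·EB, where EA and EB are the single-agent effects.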

[2] = tested on: SNU-1 (Gastric Carcinoma); assay: combination Emax (second highest fraction inhibited in the dose matrix, 72 h); higher = more inhibition; extreme values may be limits of the assay
Method in brief: as §1

[3] = tested on: HT-1197 (Bladder Carcinoma); assay: as above
Method in brief: as §1

[4] = tested on: TOV-21G (Ovarian Carcinoma); assay: as above
Method in brief: as §1

RVH-421 (Melanoma) [5] = assay: as above
Method in brief: as §1

[6] = tested on: NCI-H2009 (Lung Adenocarcinoma); assay: as above
Method in brief: as §1

[7] = tested on: COR-L105 (Lung Adenocarcinoma); assay: as above
Method in brief: as §1

[8] = tested on: C2BBe1 (Colorectal Carcinoma); assay: as above
Method in brief: as §1

[9] = tested on: NCI-H1435 (Non-Small Cell Lung Carcinoma); assay: as above
Method in brief: as §1

A375 (Melanoma) = assay: as above
Method in brief: as §1

C32 (Melanoma) = assay: as above
Method in brief: as §1

[10] = tested on: Daudi (Burkitt's Lymphoma); assay: as above
Method in brief: as §1

[11] = tested on: JJN-3 (Plasma Cell Myeloma); assay: as above
Method in brief: as §1

SK-N-DZ (Neuroblastoma) = assay: as above
Method in brief: as §1

[12] = tested on: L-363 (Plasma Cell Myeloma); assay: as above
Method in brief: as §1

HT-144 (Melanoma) = assay: as above
Method in brief: as §1

SK-MEL-24 (Melanoma) = assay: as above
Method in brief: as §1

[13] = tested on: MDA-MB-175-VII (Breast Carcinoma); assay: as above
Method in brief: as §1
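Wherever Bliss excess, mean over the matrix is given: after 72 h of two-drug dosing.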

SMILES | Bliss excess (RVH-421 (Melanoma) [1]) | combination Emax [2] | combination Emax [3] | combination Emax [4] | combination Emax (RVH-421 (Melanoma) [5]) | combination Emax [6] | combination Emax [7] | combination Emax [8] | combination Emax [9] | combination Emax (A375 (Melanoma)) | combination Emax (C32 (Melanoma)) | combination Emax [10] | combination Emax [11] | combination Emax (SK-N-DZ (Neuroblastoma)) | combination Emax [12] | combination Emax (HT-144 (Melanoma)) | combination Emax (SK-MEL-24 (Melanoma)) | combination Emax [13]
CN(C)CCCOc1ccc(-c2ccc3ncc4c(c3c2)n(C2CCOCC2)c(=O)n4C)cn1 [AZD0156] + C[C@@H]1COCCN1C2=NC(=NC(=C2)C3(CC3)[S@](=N)(=O)C)C4=C5C=CNC5=NC=C4 [AZD6738] (first compound max 1 µM, 7x7, partner max 10 µM) | -0.0581 | 0.769 | 0.526 | 0.652 | 0.18 | 0.459 | 0.472 | 0.434 | 0.158 | 0.815 | 0.666 | 0.848 | 0.938 | 0.975 | 0.92 | 0.721 | 0.457 | 0.342
C[C@@H]1COCCN1c1cc(C2([S@](C)(=N)=O)CC2)nc(-c2ccnc3[nH]ccc23)n1 [AZD6738] + O=C(c1cc(Cc2n[nH]c(=O)c3ccccc23)ccc1F)N1CCN(C(=O)C2CC2)CC1 [Olaparib] (first compound max 10 µM, 7x7, partner max 10 µM) | -0.0324 | 0.777 | 0.393 | 0.538 | 0.215 | 0.478 | 0.581 | 0.331 | 0.212 | 0.66 | 0.694 | 0.828 | 0.584 | 0.915 | 0.854 | 0.859 | 0.551 | 0.352
CC1(C)CCC(CN2CCN(c3ccc(C(=O)NS(=O)(=O)c4ccc(NCC5CCOCC5)c([N+](=O)[O-])c4)c(Oc4cnc5[nH]ccc5c4)c3)CC2)=C(c2ccc(Cl)cc2)C1 [Venetoclax] + COc1cc(Nc2ncc3c(n2)-c2ccc(Cl)cc2C(c2c(F)cccc2OC)=NC3)ccc1C(=O)O [Alisertib] (first compound max 1 µM, 7x7, partner max 10 µM) | -0.058 | 0.327 | 0.163 | 0.682 | 0.0752 | 0.5 | 0.377 | 0.516 | 0.287 | 0.466 | 0.487 | 0.787 | 0.939 | 0.888 | 0.772 | 0.358 | 0.401 | 0.238
Cc1c2c(nn1C)CSCc1cc(n(C)n1)CSc1cc(c3ccccc3c1)OCCCc1c(C(=O)O)n(C)c3c-2c(Cl)ccc13 [AZD5991] + C1CN(CCC1(C(=O)N[C@@H](CCO)C2=CC=C(C=C2)Cl)N)C3=NC=NC4=C3C=CN4 [Capivasertib] (first compound max 1 µM, 7x7, partner max 3 µM) | -0.0513 | 0.613 | 0.419 | 0.634 | 0.411 | 0.158 | 0.248 | 0.251 | 0.179 | 0.2 | 0.266 | 0.348 | 1 | 0.182 | 1 | 1 | 0.439 | 0.488
CN(C)CCCOc1ccc(-c2ccc3ncc4c(c3c2)n(C2CCOCC2)c(=O)n4C)cn1 [AZD0156] + CCN(CCO)CCCOc1ccc2c(Nc3cc(CC(=O)Nc4cccc(F)c4)[nH]n3)ncnc2c1 [AZD2811] (first compound max 1 µM, 7x7, partner max 1 µM) | -0.0626 | 0.434 | 0.203 | 0.266 | 0.0787 | 0.189 | 0.167 | 0.114 | 0.101 | 0.33 | 0.14 | 0.497 | 0.404 | 0.391 | 0.192 | 0.232 | 0.16 | 0.208
CCc1c2c(nc3ccc(O)cc13)-c1cc3c(c(=O)n1C2)COC(=O)[C@]3(O)CC [SN-38] + O=C(c1cc(Cc2n[nH]c(=O)c3ccccc23)ccc1F)N1CCN(C(=O)C2CC2)CC1 [Olaparib] (first compound max 0.3 µM, 7x7, partner max 10 µM) | -0.0041 | 0.926 | 0.35 |  | 0.265 | 0.442 | 0.401 |  | 0.326 | 0.949 | 0.664 | 0.979 | 0.688 |  | 0.421 |  | 0.775 | 0.649
